Series [1] can be described thus: Maximum solubility of alkanediols in water, visual assessment (Example 6). As to conditions: assessed visually at ambient temperature after 24 h storage at 5° C.; clear mixture = dissolved.
Text: For the determination of the maximum water solubility of an alkanediol, water and different concentrations of the respective alkanediol were blended by stirring. […] The determination of whether the alkanediol has dissolved in water is based entirely on visual observation.
The nature of series [2]: Solubility of different alkanediols or mixtures thereof in sunflower oil (Example 1). The class given is physicochemical. The protocol: Each 15 g 1,2-pentanediol, 1,2-hexanediol, 1,2-heptanediol or 1,2-octanediol were dissolved in 85 g sunflower oil. Each 15 g of a mixture of 1,2-octanediol and 2,3-octanediol (95:5) or 1,2-heptanediol and 2,3-heptanediol (95:5) were dissolved in 85 g sunflower oil.

Series [3] relates to skin (backside of hand) of untrained panelists. As to the kind of experiment: Sensory evaluation by untrained panelists: heptanediols, octanediols and their mixtures blended 85:15 with liquid lipophilic components (Example 4, Table 22). Details: species or system human. The note with it: in vivo. The protocol: Test procedure: • Hands were pre-washed with liquid soap by following a defined procedure; • 30 μl of corresponding sample was applied on the backside of each hand (randomized); • After 30 s the spreading behaviour of the respective formulation on skin was evaluated versus the respective oil component without 1,2-heptanediol on a scale from 1 to 5 (1=low spreading; 5=high spreading); • The samples were distributed with the fingertips of middle and forefinger with 2×5 cycles; • After 2 minutes, the fatty/greasy skin feel was evaluated on a scale from 1 to 5 (1=low fatty/greasy skin feel; 5=high fatty/greasy skin feel); • Furthermore the applicants were asked to assess the absorption, i.e. the impression of amount of remaining residue on the skin on a scale from 1 to 5 (1=low absorption; 5=high absorption).
For evaluating the sensory behaviour, liquid lipophilic components specified in the following Table 22 were blended with 1,2-heptanediol or 2,3-heptanediol or a mixture of 1,2-heptanediol and 2,3-heptanediol or 1,2-octanediol or 2,3-octanediol or a mixture of 1,2-octanediol and 2,3-octanediol (formulation) in a ratio of 85:15 and assessed by untrained panelists in comparison to the liquid lipophilic component without addition of the specified alkanediols (placebo).
The test procedure was carried out in the same manner as described in Example 2.

The values that follow come from patent US20230293403A1, “Compositions Comprising Lipophilic Compounds and One or More (Bio)-Alkanediols” (Symrise AG, priority 2020, published 2023).

For `CCCCCCC(O)C(C)O` (stereo not drawn) [2,3-nonanediol], the “Maximum solubility in water” value in series [1] amounted to 0.3 % by weight.
For the compound `CCCCCC(O)CO` (stereo not drawn) [1,2-heptanediol], the “solubility in sunflower oil” value in series [2] is “better solubility”. For the same compound, the “improvement in spreading of liquid lipophilic components with poor spreading by nature” value in series [3] was “perform best”. Also, the “Maximum solubility in water” value in series [1] is on record as 2.5 % by weight.
Consider `CCCCCCC(O)CO` (stereo not drawn) [Hydrolite ® 8, Caprylyl Glycol], for which, in series [1], the “Maximum solubility in water” value worked out at 0.5 % by weight.
Take `CCCCCCC(O)CO` (stereo not drawn) [1,2-octanediol]: the “solubility in sunflower oil” value in series [2] is “tends to precipitate or recrystallize”.
Take `CCCCC(O)C(C)O` (stereo not drawn) [2,3-heptanediol]: the “Maximum solubility in water” value in series [1] was 3.6 % by weight.
In the case of `CCCCCC(O)C(C)O` (stereo not drawn) [2,3-octanediol], in series [1], the “Maximum solubility in water” value was found to be 1.5 % by weight.
With `CCCCCCCC(O)CO` (stereo not drawn) [1,2-nonanediol], the “Maximum solubility in water” value in series [1] is listed as 0.1 % by weight.
